Test results from patent EP0805678B1, “SURFACE-MODIFIED NANOPARTICLES AND METHOD OF MAKING AND USING SAME” (THE BOARD OF REGENTS acting for and on behalf of THE …, priority 1995, dated 1996).

How the values were obtained:
coronary artery = assay: in vivo retention of nanoparticles in porcine coronary artery; set-up: species or system pigs; details: after local delivery of U86-loaded nanoparticles; about 45 µg nanoparticles per 1 cm LAD
Description: In addition to the in vivo studies with rats, the nanoparticles were tested on pigs, weighing between about 30-40 lbs. In each subject pig, the elastic lamina of the coronary artery was ruptured by over inflation of a balloon tip catheter. A nanoparticle suspension (2.5 to 10 mg/ml in normal saline) was infused at the location of the injury by a Wolinksy (28 or 96 hole) or D-3 balloon catheter (Sci-Med, Minneapolis, MN) at 1-3 atmosphere pressure over 1 to 5 minutes. After 2-6 hours, the coronary arteries were harvested and quantitated for drug levels to calculate nanoparticle retention. U86 loaded-PLGA nanoparticles (15% w/w) with 5% DMAB surface modification and a particle size between 100-149 nm were suspended in normal saline at a concentration 15 or 30 mg/ml. The nanoparticles (NP) were administered to pigs which were sacrificed at 30 minutes or after one hour.

[1] = tested on: ADP-induced platelet aggregation; assay: in vitro platelet aggregometry; format: cell-based, pig; details: platelet rich plasma at 37° C, effects monitored after 1 minute
Description: Using standard in vitro platelet aggregometry techniques, a dose-response curve was first developed with free ciprostene to determined its inhibitory potency against standard ADP-induced platelet aggregation. […] Concentrations of PLGA nanoparticles ranging from 0.3 to 30 µg/ml (actual ciprostene concentration of 0.06 to 6 µg/ml due to 20% drug loading) were added to platelet rich plasma samples heated to 37° C. The platelet inhibitory effects were monitored after 1 minute. The IC50 for the polymer-incorporated ciprostene was 0.59 µg/ml. Non-drug containing PLGA nanoparticles, as controls, had no obvious effects on the aggregation profile of pig platelets to the agonist ADP.

In the case of O=c1cc(N2CCOCC2)oc2c(OCc3cccnc3)cccc12 [Sample U86, U-86983], the “net U86 in 1 cm of treated artery” value (coronary artery) is reported as “about 7 µg”.

With CCCCC[C@H](O)/C=C/[C@H]1[C@H](O)C[C@]2(C)C/C(=C\CCCC(=O)O)C[C@H]12 [free ciprostene, ciprostene] the IC50 [1] was “roughly 0.28 µg/ml”.
